From US8252781B2, “1,2-diazetidin-3-one derivatives and drugs containing same” (Kowa Company, Ltd., priority 2008, dated 2012)
Where two headings read alike, the source gives them in different places.

How the values were obtained:
human 11β-HSD1 = target: T1, human 11β-HSD1 (Homo sapiens, UniProt P28845); assay: Enzyme inhibitory activity, human 11β-HSD1 (lysate of stably expressing HEK293 cells, cortisol by competitive ELISA); assay type: biochemical; conditions: human 11β-HSD1, cell lysate, 37° C. for 1 hour, read-out: h HSD1 in vitro assay (IC50 uM)
T1 construct: The obtained PCR products of about 0.9 kbp, 1.2 kbp, and 0.9 kbp were subcloned into an expression vector pcDNA3.1+/Zeo; expressed in transfected cells
Protocol: (§1) 1. Human 11β-HSD1-, Human 11β-HSD2- and Mouse 11β-HSD1-Gene Clonings and Establishment of Stably Expressing Cells
(§2) Human 11β-HSD1-, human 11β-HSD2-, and mouse 11β-HSD1-gene clonings were conducted using as a template a reverse transcription product of human-liver RNA, human-kidney RNA (CELL APPLICATIONS), and mouse-kidney RNA respectively, by means of PCR cloning with reference to nucleotide sequences of Genbank Accession Nos. NM_005525, NM_000196, and NM_008288. The obtained PCR products of about 0.9 kbp, 1.2 kbp, and 0.9 kbp were subcloned into an expression vector pcDNA3.1+/Zeo (Invitrogen).
(§3) Human 11β-HSD1- and human 11β-HSD2-expressing vectors were transfected into human kidney-derived cell line, HEK293 cells, using a transfection reagent, jet PEI (Funakoshi). Mouse 11β-HSD1 was transfected to Chinese hamster ovary-derived cell line, CHO-K1 cells. Selection was conducted with 200-400 μg/mL of zeocine (Invitrogen) to provide stably expressing-cell clones. The stably expressing cells were suspended in buffer solution A (20 mmol/L Tris-HCl, pH 7.4, 250 mmol/L sucrose, 1 mmol/L EGTA, 1 mmol/L EDTA, 1 mmol/L MgCl2), sonicated, and then stored at −80° C.
(§4) 2. Assay of Enzyme Inhibitory Activity
(§5) An enzymatic reaction was conducted using a polystyrene 96-well plate. Each well was added with 1 μL of a test agent dissolved in DMSO and then diluted (0.003 to 3 mmol/L), and further added with 10 μL of cell lysate diluted to a concentration of 0.1 mg/mL to 0.4 mg/mL. Next, 90 μL of buffer solution A containing substrate (100 nmol/L cortisone or cortisol) and coenzyme (400 μmol/L NADPH or NAD+) was added and the mixture was incubated at 37° C. for 1 hour. The enzymatic reaction was stopped by treating at 95° C. for 3 minutes. Cortisol that was present in the reaction solution was determined by a competitive ELISA shown below.
(§6) Anti-rabbit IgG antibody (Chemi-con) diluted to 2 μg/mL with carbonate buffer solution (pH 9.6) was added in 100 μL each to a 96-well immuno plate (Nunc) and immobilized by an incubation at 4° C. overnight. 50 μL of enzymatic reaction solution was put onto the plates, and further, anti-cortisol antibody (Cosmo Bio) and HRP-labeled cortisol (Cosmo Bio), diluted with buffer solution B (25 mmol/L Tris-HCl pH 7.4, 137 mmol/L NaCl, 2.68 mmol/L KCl), were added in 50 μL respectively and incubated at 4° C. overnight. After washed three times with buffer solution B containing 0.05% Tween 20, the plates were allowed to develop color by adding 100 μL of color reagent, TMB (Moss). The color reaction was stopped by 25 μL of 1 mol/L sulfuric acid and the absorbance was determined at 450 nm with a microplate reader (Molecular Device, VersaMax).
(§7) The values of human 11β-HSD1, human 11β-HSD2, and mouse 11β-HSD1 activities were subtracted from 100, and the resultant values were regarded as the respective 11β-HSD inhibition rates of example compounds. […] The comparison of human 11β-HSD1 and human 11β-HSD2 inhibiting activities is shown in Table 1, and the comparison of human 11β-HSD1 and mouse 11β-HSD1 inhibiting activities is shown in Table 2.

mouse 11β-HSD1 = target: T2, mouse 11β-HSD1 (Mus musculus, UniProt P50172); assay: Enzyme inhibitory activity, mouse 11β-HSD1 (lysate of stably expressing CHO-K1 cells, cortisol by competitive ELISA); assay type: biochemical; conditions: Table 2; mouse 11β-HSD1, cell lysate, 37° C. for 1 hour; read-out: m HSD1 in vitro assay (IC50 uM)
T2 construct: The obtained PCR products of about 0.9 kbp, 1.2 kbp, and 0.9 kbp were subcloned into an expression vector pcDNA3.1+/Zeo; expressed in transfected cells
Protocol: as §1, §2, §3, §4, §5, §6, §7

T1 sequence (P28845 whole entry): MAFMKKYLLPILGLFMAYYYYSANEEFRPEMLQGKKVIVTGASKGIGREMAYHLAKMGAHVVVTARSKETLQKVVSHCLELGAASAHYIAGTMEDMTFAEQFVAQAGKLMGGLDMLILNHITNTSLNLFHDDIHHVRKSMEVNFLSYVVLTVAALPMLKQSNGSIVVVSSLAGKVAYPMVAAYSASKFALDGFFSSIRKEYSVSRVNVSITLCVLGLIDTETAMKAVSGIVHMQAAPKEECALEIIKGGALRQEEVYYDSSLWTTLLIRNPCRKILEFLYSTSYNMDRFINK
T2 sequence (P50172 whole entry): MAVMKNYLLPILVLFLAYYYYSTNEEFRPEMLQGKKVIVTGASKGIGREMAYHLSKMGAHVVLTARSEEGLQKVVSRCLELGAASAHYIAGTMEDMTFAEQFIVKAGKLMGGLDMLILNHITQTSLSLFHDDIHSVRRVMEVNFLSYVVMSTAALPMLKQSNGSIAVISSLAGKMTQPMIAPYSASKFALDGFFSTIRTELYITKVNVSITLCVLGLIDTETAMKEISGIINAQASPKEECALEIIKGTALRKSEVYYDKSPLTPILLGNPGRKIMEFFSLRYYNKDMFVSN

IC50 (human 11β-HSD1; Table 2) [µM] | IC50 (mouse 11β-HSD1) [µM] | IC50 (human 11β-HSD1; Table 1) [µM] | Compound
0.79 | 0.18 |  | CC1C(=O)N(C2C3CC4CC(C3)CC2C4)N1Cc1ccccc1 (stereo not shown) [Example 8, 1-benzyl-4-methyl-2-(adamantan-2-yl)-1,2-diazetidin-3-one]
0.68 | 0.24 |  | CC1C(=O)N(C2C3CC4CC(C3)CC2C4)N1Cc1ccc(Cl)cc1 (stereo not shown) [Example 9, 1-(4-chlorobenzyl)-4-methyl-2-(adamantan-2-yl)-1,2-diazetidin-3-one]
0.047 | 0.023 |  | CC1(C)C(=O)N(C2C3CC4CC(C3)CC2C4)N1Cc1ccccc1 (stereo not shown) [Example 12, 1-benzyl-4,4-dimethyl-2-(adamantan-2-yl)-1,2-diazetidin-3-one]
0.058 | 0.025 |  | CC1(C)C(=O)N(C2C3CC4CC(C3)CC2C4)N1Cc1ccc(Cl)cc1 (stereo not shown) [Example 13, 1-(4-chlorobenzyl)-4,4-dimethyl-2-(adamantan-2-yl)-1,2-diazetidin-3-one]
0.84 | 0.088 |  | Cc1ccc(CN2N(C3C4CC5CC(C4)CC3C5)C(=O)C2(C)C)cc1 (stereo not shown) [Example 14, 4,4-dimethyl-1-(4-methylbenzyl)-2-(adamantan-2-yl)-1,2-diazetidin-3-one]
0.36 | 0.084 |  | CC1(C)C(=O)N(C2C3CC4CC(C3)CC2C4)N1Cc1ccc(F)cc1 (stereo not shown) [Example 15, 1-(4-fluorobenzyl)-4,4-dimethyl-2-(adamantan-2-yl)-1,2-diazetidin-3-one]
0.8 | 0.1 |  | CC1(C)C(=O)N(C2C3CC4CC(C3)CC2C4)N1Cc1ccc(F)c(F)c1 (stereo not shown) [Example 16, 1-(3,4-difluorobenzyl)-4,4-dimethyl-2-(adamantan-2-yl)-1,2-diazetidin-3-one]
0.71 | 0.23 |  | CC1(C)C(=O)N(C2C3CC4CC(C3)CC2C4)N1Cc1ccc(F)cc1F (stereo not shown) [Example 17, 1-(2,4-difluorobenzyl)-4,4-dimethyl-2-(adamantan-2-yl)-1,2-diazetidin-3-one]
0.47 | 0.27 |  | CC1(C)C(=O)N(C2C3CC4CC(C3)CC2C4)N1Cc1cccc(F)c1F (stereo not shown) [Example 19, 1-(2,3-difluorobenzyl)-4,4-dimethyl-2-(adamantan-2-yl)-1,2-diazetidin-3-one]
0.35 | 0.2 |  | CC1(C)C(=O)N(C2C3CC4CC(C3)CC2C4)N1Cc1cc(F)ccc1F (stereo not shown) [Example 20, 1-(2,5-difluorobenzyl)-4,4-dimethyl-2-(adamantan-2-yl)-1,2-diazetidin-3-one]
0.64 | 0.079 |  | CC1(C)C(=O)N(C2C3CC4CC(C3)CC2C4)N1Cc1cccc(F)c1 (stereo not shown) [Example 22, 1-(3-fluorobenzyl)-4,4-dimethyl-2-(adamantan-2-yl)-1,2-diazetidin-3-one]
 |  | 0.07 | CC1(C)C(=O)N(C2C3CC4CC(C3)CC2C4)N1C(=O)c1ccccc1I (stereo not shown) [Example 121, 1-[(2-iodophenyl)carbonyl]-4,4-dimethyl-2-(adamantan-2-yl)-1,2-diazetidin-3-one]
 |  | 0.32 | CC1(C)C(=O)N(C2C3CC4CC(C3)CC2C4)N1C(=O)c1cc(Cl)ccc1Cl (stereo not shown) [Example 122, 1-[(2,5-dichlorophenyl)carbonyl]-4,4-dimethyl-2-(adamantan-2-yl)-1,2-diazetidin-3-one]
 |  | 0.11 | CCc1ccccc1C(=O)N1N(C2C3CC4CC(C3)CC2C4)C(=O)C1(C)C (stereo not shown) [Example 126, 1-[(2-ethylphenyl)carbonyl]-4,4-dimethyl-2-(adamantan-2-yl)-1,2-diazetidin-3-one]
 |  | 0.66 | CC1(C)C(=O)N(C2C3CC4CC(C3)CC2C4)N1C(=O)c1ccc(F)cc1C(F)(F)F (stereo not shown) [Example 132, 1-[(4-fluoro-2-trifluoromethylphenyl)carbonyl]-4,4-dimethyl-2-(adamantan-2-yl)-1,2-diazetidin-3-one]
 |  | 0.14 | CC1(C)C(=O)N(C2C3CC4CC(C3)CC2C4)N1C(=O)c1ccccc1N (stereo not shown) [Example 136, 1-[(2-aminophenyl)carbonyl]-4,4-dimethyl-2-(adamantan-2-yl)-1,2-diazetidin-3-one]
 |  | 0.9 | Cc1ccc(C)c(C(=O)N2N(C3CCCCC3)C(=O)C2(C)C)c1 [Example 149, 2-cyclohexyl-1-[(2,5-dimethylphenyl)carbonyl]-4,4-dimethyl-1,2-diazetidin-3-one]
 |  | 0.036 | CC1(C)C(=O)N(C2CCCCCCC2)N1C(=O)c1cccc2ccccc12 [Example 154, 2-cyclooctyl-4,4-dimethyl-1-(naphthalen-1-ylcarbonyl)-1,2-diazetidin-3-one]
 |  | 0.72 | CC1(C)C(=O)N(C2C3CC4CC(C3)CC2C4)N1C(=O)c1cc(Cl)ccc1Br (stereo not shown) [Example 163, 1-[(2-bromo-5-chlorophenyl)carbonyl]-4,4-dimethyl-2-(adamantan-2-yl)-1,2-diazetidin-3-one]
 |  | 0.096 | CSc1ccccc1C(=O)N1N(C2C3CC4CC(C3)CC2C4)C(=O)C1(C)C (stereo not shown) [Example 165, 4,4-dimethyl-1-{[2-(methylthio)phenyl]carbonyl}-2-(adamantan-2-yl)-1,2-diazetidin-3-one]
 |  | 0.11 | CSc1ccccc1C(=O)N1N(C2CCCCCCC2)C(=O)C1(C)C [Example 168, 2-cyclooctyl-4,4-dimethyl-1-{[2-(methylthio)phenyl]carbonyl}-1,2-diazetidin-3-one]
 |  | 0.041 | COCOc1ccc(N2N(C3C4CC5CC(C4)CC3C5)C(=O)C2(C)C)cc1 (stereo not shown) [Example 214, 1-[4-(methoxymethoxy)phenyl]-4,4-dimethyl-2-(adamantan-2-yl)-1,2-diazetidin-3-one]
 |  | 0.68 | COc1ccccc1N1N(C2CC3CCC2C3)C(=O)C1(C)C (stereo not shown) [Example 223, 2-(bicyclo[2.2.1]heptan-2-yl)-1-(2-methoxyphenyl)-4,4-dimethyl-1,2-diazetidin-3-one]
 |  | 0.95 | CC1(C)C(=O)N([C@H]2C3CC4CC2C[C@](O)(C4)C3)N1c1ccccc1 [Example 226, trans-2-(5-hydroxyadamantan-2-yl)-4,4-dimethyl-1-phenyl-1,2-diazetidin-3-one]
 |  | 0.54 | COc1ccc(N2N([C@H]3C4CC5CC3C[C@](O)(C5)C4)C(=O)C2(C)C)cc1 [Example 230, trans-2-(5-hydroxyadamantan-2-yl)-1-(4-methoxyphenyl)-4,4-dimethyl-1,2-diazetidin-3-one]
 |  | 0.32 | COc1ccc(N2N([C@H]3C4CC5CC3C[C@@](O)(C5)C4)C(=O)C2(C)C)cc1 [Example 240, cis-2-(5-hydroxyadamantan-2-yl)-1-(4-methoxyphenyl)-4,4-dimethyl-1,2-diazetidin-3-one]
 |  | 0.076 | Cc1ccccc1N1N([C@H]2C3CC4CC2C[C@@](O)(C4)C3)C(=O)C1(C)C [Example 242, cis-2-(5-hydroxyadamantan-2-yl)-4,4-dimethyl-1-(2-methylphenyl)-1,2-diazetidin-3-one]
 |  | 0.81 | CC1(C)C(=O)N([C@H]2C3CC4CC2C[C@@](O)(C4)C3)N1c1ccccc1O [Example 244, cis-1-(2-hydroxyphenyl)-2-(5-hydroxyadamantan-2-yl)-4,4-dimethyl-1,2-diazetidin-3-one]
 |  | 0.26 | CC1(C)C(=O)N([C@H]2C3CC4CC2C[C@@](Cl)(C4)C3)N1c1cccc(Cl)c1Cl [Example 256, cis-2-(5-chloroadamantan-2-yl)-1-(2,3-dichlorophenyl)-4,4-dimethyl-1,2-diazetidin-3-one]
